Laboratory results taken from US5869494A, “Uses for barbituric acid analogs” (priority 1997, dated 1999).
Where two headings read alike, the source gives them in different places.

Experiments:
Assay type in all cases: cell-based
[1] = system: MCF-7 human breast cancer cells; experiment: Cytotoxicity for breast cancer cell line MCF-7 (MTT assay); conditions: read-out: Percent cell kill; for cytotoxicity at 100 µg/mL: 100 μg/ml; for cytotoxicity at 150 µg/mL: 150 μg/ml; for cytotoxicity at 200 µg/mL: 200 μg/ml
Procedure: (§1) In the following examples, tumor cells were treated with varying concentrations of compounds C1, C2, C4 or C5 dissolved in absolute ethanol. To limit any non-specific toxicity, the final concentration of ethanol was not allowed to exceed 0.5%. Stock concentrations of 5 mg/ml or 20 mg/ml were used. Viability of cells was determined in some studies by the trypan blue dye exclusion method. In other studies, cell viability/proliferation activity was determined by MTT assay by using a kit obtained from Promega, (Promega Corp., Madison, Wis. 53711). For this assay, a 100 μl cell suspension containing 5-10^3 monolayer cells or 1×10^5 suspension cells was placed in the wells of a 96-well microtiter plate. After overnight incubation, cells were treated with different concentrations of the test compound. Control wells received vehicle only. After 24, 48, 72 or 96 h of incubation, 50 μl of MTT dye solution was added. After 4 h of incubation at 37° C., 100 μl of solubilization/stop solution was added. After another h of incubation, cells were mixed using a multi-channel pipet and the absorption of the dye color was recorded at 570 nm using a plate reading absorption spectrophotometer.
(§2) After the incubation period, viability of the cells was determined by MTT assay (Promega Corp., Madison, Wis. 53711).

[2] = system: Daudi human lymphoma cells; experiment: Cytotoxicity for lymphoma cells (Daudi); conditions: Homo sapiens, Daudi; for cytotoxicity at 100 µg/mL: 100 μg/ml; for cytotoxicity at 150 µg/mL: 150 μg/ml, read-out: % Cytotoxicity; for cytotoxicity at 200 µg/mL: 200 μg/ml
Procedure: as §1
The viability of the cells was
Compounds C4 and C5 were also tested for toxicity against human lymphoma Daudi cells.

[3] = system: PC-3 human prostate cancer cells; experiment: Cytotoxicity for prostate cancer cell line PC-3 (MTT assay); conditions: read-out: Percent cell kill; for cytotoxicity at 100 µg/mL: 100 μg/ml; for cytotoxicity at 150 µg/mL: 150 μg/ml; for cytotoxicity at 200 µg/mL: 200 μg/ml
Procedure: as §1, §2

[4] = system: BT-20 human breast cancer cells; experiment: Cytotoxicity for breast cancer cell line BT-20 (MTT assay); conditions: read-out: Percent cell kill; for cytotoxicity at 100 µg/mL: 100 μg/ml; for cytotoxicity at 150 µg/mL: 150 μg/ml; for cytotoxicity at 200 µg/mL: 200 μg/ml
Procedure: as §1, §2

[5] = system: DU-145 human prostate cancer cells; experiment: Cytotoxicity for prostate cancer cell line DU-145 (MTT assay); conditions: read-out: Percent cell kill; for cytotoxicity at 100 µg/mL: 100 μg/ml; for cytotoxicity at 150 µg/mL: 150 μg/ml; for cytotoxicity at 200 µg/mL: 200 μg/ml
Procedure: as §1, §2

[6] = system: L1210 mouse leukemia cells; experiment: Cytotoxicity for leukemia cells (L1210); conditions: for cytotoxicity at 100 µg/mL / cytotoxicity at 150 µg/mL / cytotoxicity at 200 µg/mL: Mus musculus; for cytotoxicity at 100 µg/mL: 100 μg/ml; for cytotoxicity at 150 µg/mL: 150 μg/ml
Procedure: as §1
The viability of the cells was […]

CCCCN1C(=O)C(=O)C(=O)N(CCCC)C1=S [Compound C2, 4,5,6(1H)-pyrimidinetrione, 1,3-dibutyldihydro-2-thioxo]
cytotoxicity at 100 µg/mL ([1]; MCF7, 24 h, 24 hr): 9 ± 7% | cytotoxicity at 150 µg/mL ([1]; MCF7, 24 h, 24 hr): 26.3 ± 7.9% | cytotoxicity at 200 µg/mL ([1]; MCF7, 24 h, 24 hr): 40 ± 10.6% | cytotoxicity at 100 µg/mL ([1]; MCF7, 48 h, 48 hr): 16.3 ± 4.8% | cytotoxicity at 150 µg/mL ([1]; MCF7, 48 h, 48 hr): 43.3 ± 7.3% | cytotoxicity at 200 µg/mL ([1]; MCF7, 48 h, 48 hr): 70.3 ± 7.8% | cytotoxicity at 100 µg/mL ([1]; MCF7, 72 h, 72 hr): 33.3 ± 5.4% | cytotoxicity at 150 µg/mL ([1]; MCF7, 72 h, 72 hr): 61 ± 5.6% | cytotoxicity at 200 µg/mL ([1]; MCF7, 72 h, 72 hr): 81.3 ± 3.2% | cytotoxicity at 100 µg/mL ([1]; MCF7, 96 h, 96 hr): 87.7 ± 0.6% | cytotoxicity at 150 µg/mL ([1]; MCF7, 96 h, 96 hr): 97 ± 0.8% | cytotoxicity at 200 µg/mL ([1]; MCF7, 96 h, 96 hr): 94.3 ± 2.1% | cytotoxicity at 100 µg/mL ([2]; 24 h): 57.5 ± 3% | cytotoxicity at 150 µg/mL ([2]; 24 h, 24 hr): 81.3 ± 4% | cytotoxicity at 200 µg/mL ([2]; 24 h): 93.2 ± 3.3% | cytotoxicity at 100 µg/mL ([2]; 48 h): 41.5% | cytotoxicity at 150 µg/mL ([2]; 48 h, 48 hr): 92% | cytotoxicity at 200 µg/mL ([2]; 48 h): 88% | cytotoxicity at 100 µg/mL ([3]; 24 h, 24 hr): 32.7 ± 6.2% | cytotoxicity at 150 µg/mL ([3]; 24 h, 24 hr): 47 ± 6.7% | cytotoxicity at 200 µg/mL ([3]; 24 h, 24 hr): 57.5 ± 3.5% | cytotoxicity at 100 µg/mL ([3]; 48 h, 48 hr): 46.2 ± 4.1% | cytotoxicity at 150 µg/mL ([3]; 48 h, 48 hr): 70.7 ± 6% | cytotoxicity at 200 µg/mL ([3]; 48 h, 48 hr): 81.5 ± 3.1% | cytotoxicity at 100 µg/mL ([3]; 72 h, 72 hr): 51.5 ± 6.5% | cytotoxicity at 150 µg/mL ([3]; 72 h, 72 hr): 77.7 ± 4.6% | cytotoxicity at 200 µg/mL ([3]; 72 h, 72 hr): 88.5 ± 5.2% | cytotoxicity at 100 µg/mL ([3]; 96 h, 96 hr): 75 ± 1% | cytotoxicity at 150 µg/mL ([3]; 96 h, 96 hr): 88.7 ± 3.2% | cytotoxicity at 200 µg/mL ([3]; 96 h, 96 hr): 95 ± 3.6% | cytotoxicity at 100 µg/mL ([4]; BT-20, 24 h, 24 hr): 29.8 ± 6.8% | cytotoxicity at 150 µg/mL ([4]; BT-20, 24 h, 24 hr): 30 ± 4.4% | cytotoxicity at 200 µg/mL ([4]; BT-20, 24 h, 24 hr): 30.3 ± 2.9% | cytotoxicity at 100 µg/mL ([4]; BT-20, 48 h, 48 hr): 51.8 ± 1.9% | cytotoxicity at 150 µg/mL ([4]; BT-20, 48 h, 48 hr): 50 ± 1.7% | cytotoxicity at 200 µg/mL ([4]; BT-20, 48 h, 48 hr): 55.5 ± 8.9% | cytotoxicity at 100 µg/mL ([4]; BT-20, 72 h, 72 hr): 57.5 ± 2.6% | cytotoxicity at 150 µg/mL ([4]; BT-20, 72 h, 72 hr): 60.8 ± 2.8% | cytotoxicity at 200 µg/mL ([4]; BT-20, 72 h, 72 hr): 68.5 ± 3.4% | cytotoxicity at 100 µg/mL ([4]; BT-20, 96 h, 96 hr): 99.9% | cytotoxicity at 150 µg/mL ([4]; BT-20, 96 h, 96 hr): 99.9% | cytotoxicity at 200 µg/mL ([4]; BT-20, 96 h, 96 hr): 99.9% | cytotoxicity at 100 µg/mL ([5]; DU-145, 24 h, 24 hr): 0% | cytotoxicity at 150 µg/mL ([5]; DU-145, 24 h, 24 hr): 0% | cytotoxicity at 200 µg/mL ([5]; DU-145, 24 h, 24 hr): 0% | cytotoxicity at 100 µg/mL ([5]; DU-145, 48 h, 48 hr): 0% | cytotoxicity at 150 µg/mL ([5]; DU-145, 48 h, 48 hr): 4.2 ± 3.9% | cytotoxicity at 200 µg/mL ([5]; DU-145, 48 h, 48 hr): 20 ± 3% | cytotoxicity at 100 µg/mL ([5]; DU-145, 72 h, 72 hr): 0% | cytotoxicity at 150 µg/mL ([5]; DU-145, 72 h, 72 hr): 9.2 ± 5.3% | cytotoxicity at 200 µg/mL ([5]; DU-145, 72 h, 72 hr): 36.7 ± 2.1% | cytotoxicity at 100 µg/mL ([5]; DU-145, 96 h, 96 hr): 10 ± 6.1% | cytotoxicity at 150 µg/mL ([5]; DU-145, 96 h, 96 hr): 25.2 ± 7.4% | cytotoxicity at 200 µg/mL ([5]; DU-145, 96 h, 96 hr): 43.7 ± 4.3% | % Cytotoxicity ([6]; 200 μg/ml, 24 hr, 1440 min): > 58% | cytotoxicity at 100 µg/mL ([6]; L1210, 24 h, 24 hr): 33.2 ± 2% | cytotoxicity at 150 µg/mL ([6]; L1210, 24 h, 24 hr): 50 ± 4.1% | cytotoxicity at 200 µg/mL ([6]; L1210, 24 h, 200 μg/ml, 24 hr): 58.7 ± 2.6% | cytotoxicity at 100 µg/mL ([6]; L1210, 48 h, 48 hr): 29 ± 3.5% | cytotoxicity at 150 µg/mL ([6]; L1210, 48 h, 48 hr): 53.7 ± 2.5% | cytotoxicity at 200 µg/mL ([6]; L1210, 48 h, 200 μg/ml, 48 hr): 72.5 ± 2.4%
